Legend:
[1] = format: in vitro ADME; conditions: mouse liver microsomes, without NADPH (data not shown)
[2] = In vivo PK study, single subcutaneous dose in CD2F1 mice; conditions: male, CD2F1, mouse, sc, 200 mg/kg
G-CSF production = test: In vivo G-CSF stimulation assay; set-up: species or system mouse; conditions: CD2F1 mice, 200 mg/Kg subcutaneously; for G-CSF production in mice after treatment: plasma G-CSF 8-48 h

## CC(C)=CCC/C(C)=C/CC/C(C)=C/CC[C@]1(C)CCc2cc(O)cc(C)c2O1 [DT3, δ-tocotrienol]
[1]
  degradation in the absence of NADPH: no degradation was observed
[2]
  Tmax: ~1 h
  Tmax at 24 h: 1 h
G-CSF production
  lag time before plasma G-CSF increase: about 6 h
  time of peak plasma G-CSF concentration: 24 h
  G-CSF production in mice after treatment: significant G-CSF production

## [2H]C([2H])([2H])C(=CCC/C(C)=C/CC/C(C)=C/CC[C@]1(C)CCc2cc(O)cc(C)c2O1)C([2H])([2H])[2H] [d6-DT3, (R)-2-((3E,7E)-4,8-dimethyl-12-(methyl-d3)trideca-3,7,11-trien-1-yl-13,13,13-d3)-2,8-dimethylchroman-6-ol]
[1]
  degradation in the absence of NADPH: no degradation was observed
G-CSF production
  lag time before plasma G-CSF increase: about 6 h
  time of peak plasma G-CSF concentration: 24 h
  G-CSF production in mice after treatment: significant G-CSF production
